ChEMBL document CHEMBL5505992, “Novel membrane-targeting isoxanthohumol-amine conjugates for combating methicillin-resistant Staphylococcus aureus (MRSA) infections” (Eur J Med Chem, 2024)
The source made the active and inactive calls. The calls are words filed in the database; no cut-off is given here.

Experiments:
Cell membrane [1] = test: Disruption of cell membrane in methicillin-resistant Staphylococcus aureus clinical isolate MRSA-16 assessed as fold increase in intracellular ROS production at 64 ug/ml measured after 40 mins by DCFH-DA dye based fluorescence assay; format: cell membranes; conditions: dose 64.0 µg/ml
[2] = Toxicity in Kunming mouse assessed as histopathological abnormalities in lung at 10 mg/kg, sc measured after 24 hrs by H and E staining based analysis; format: organism-based; conditions: in vivo
[3] = Cytotoxicity against human L02 cells assessed as cell viability at 32 ug/ml by CCK-8 method relative to control; format: toxicity, cell-based; conditions: at 32 µg/mL, read-out: Activity
[4] = Toxicity in Kunming mouse assessed as redness in back of skin at 20 mg/kg, sc measured after 24 hrs; format: organism-based; conditions: in vivo
Cell membrane [5] = test: Induction of cell membrane permeability in methicillin-resistant Staphylococcus aureus clinical isolate MRSA-16 assessed as dead cells (Q1 region) at 32 ug/ml incubated for 2 hrs by SYTO 9 and PI staining based flow cytometry analysis (reference value: 0.00%); format: cell membranes; conditions: dose 32.0 µg/ml
Staphylococcus aureus [6] = test: Antibacterial activity against methicillin-resistant Staphylococcus aureus clinical isolate MRSA-21 measured after 16 to 18 hrs by CLSI method; format: functional; conditions: time 16-18 hrs
[7] = Toxicity in Kunming mouse assessed as histopathological abnormalities in spleen at 4 to 8 mg/kg, sc measured after 24 hrs by H and E staining based analysis; format: organism-based; conditions: in vivo, dose 4-8 mg/kg
Staphylococcus aureus [8] = test: Induction of morphological changes in methicillin-resistant Staphylococcus aureus clinical isolate MRSA-16 assessed as ruptured cell surface at 16 ug/ml incubated for 4 hrs by SEM analysis; format: functional, organism-based; conditions: dose 16.0 µg/ml
[9] = Toxicity in Kunming mouse assessed as effect on kidney at 4 to 8 mg/kg, sc measured after 24 hrs by H and E staining based analysis; format: organism-based; conditions: in vivo, dose 4-8 mg/kg
Cell membrane [10] = test: Induction of cell membrane permeability in methicillin-resistant Staphylococcus aureus clinical isolate MRSA-16 assessed as increase in damaged cells (Q2 region) at 32 ug/ml incubated for 2 hrs by SYTO 9 and PI staining based flow cytometry analysis (reference value: 0.91%); format: cell membranes; conditions: dose 32.0 µg/ml
Staphylococcus aureus [11] = test: Antibacterial activity against methicillin-resistant Staphylococcus aureus infected in Kunming mouse skin infection model assessed as appearance of small number of infiltrated inflammatory cells in skin dermis at 8 mg/kg,sc measured after 24 hrs; format: functional, organism-based
[12] = Toxicity in Kunming mouse assessed as survival rate at 80 mg/kg, sc measured after 24 hrs relative to control; format: organism-based; conditions: in vivo
Cell membrane [13] = test: Induction of cell membrane depolarization in methicillin-resistant Staphylococcus aureus clinical isolate MRSA-16 assessed as fold increase in fluorescence intensity at 32 ug/ml measured every 2 mins for 20 mins by DISC3(5) staining based analysis; format: cell membranes; conditions: dose 32.0 µg/ml
[14] = Toxicity in Kunming mouse assessed as effect on liver at 10 mg/kg, sc measured after 24 hrs by H and E staining based analysis; format: organism-based; conditions: in vivo
Staphylococcus aureus [15] = test: Antibacterial activity against methicillin-resistant Staphylococcus aureus infected in Kunming mouse skin infection model assessed as decrease in bacterial load at 8 mg/kg,sc measured after 24 hrs relative to control; format: functional; parameters: scale not given: the % may be the effect or the level left
Staphylococcus aureus [16] = test: Antibacterial activity against methicillin-resistant Staphylococcus aureus in presence of phosphatidylglycerol; format: functional, organism-based
Escherichia coli = test: Antibacterial activity against Escherichia coli ATCC25922 measured after 16 to 18 hrs by CLSI method; format: functional; conditions: time 16-18 hrs
Staphylococcus aureus [17] = test: Antibacterial activity against methicillin-resistant Staphylococcus aureus in presence of peptidoglycan; format: functional
Staphylococcus aureus [18] = test: Antibacterial activity against methicillin-resistant Staphylococcus aureus clinical isolate MRSA-23 measured after 16 to 18 hrs by CLSI method; format: functional; conditions: time 16-18 hrs
Cell membrane [19] = test: Induction of cell membrane permeability in methicillin-resistant Staphylococcus aureus clinical isolate MRSA-16 assessed as decrease in intact cells (Q3 region) at 16 ug/ml incubated for 2 hrs by SYTO 9 and PI staining based flow cytometry analysis (reference value: 99.07%); format: cell membranes; parameters: scale not given: the % may be the effect or the level left; conditions: dose 16.0 µg/ml
[20] = Toxicity in Kunming mouse assessed as animal death at 5 to 10 mg/kg, sc measured after 24 hrs; format: organism-based; conditions: in vivo, dose 5-10 mg/kg
Staphylococcus aureus [21] = test: Bactericidal activity against methicillin-resistant Staphylococcus aureus clinical isolate MRSA-16 assessed as bacterial killing measured upto 8 hrs by time kill assay; format: functional, organism-based
Staphylococcus aureus [22] = test: Antibacterial activity against methicillin-resistant Staphylococcus aureus infected in Kunming mouse skin infection model assessed as effect on skin abscesses in dorsal surface at 4 mg/kg,sc measured after 24 hrs; format: functional, organism-based
[23] = Hemolytic activity in sheep erythrocytes incubated for 1 hr by absorbance based analysis; format: toxicity, cell-based, Ovis aries, Erythrocyte
Cell membrane [24] = test: Disruption of cell membrane in methicillin-resistant Staphylococcus aureus clinical isolate MRSA-16 assessed as increase in intracellular ROS production at upto 64 ug/ml measured after 40 mins by DCFH-DA dye based fluorescence assay; format: cell membranes; conditions: dose <= 64.0 µg/ml
[25] = Toxicity in Kunming mouse assessed as effect on skin at 10 mg/kg, sc measured after 24 hrs by H and E staining based analysis; format: organism-based; conditions: in vivo
Cell membrane [26] = test: Induction of cell membrane permeability in methicillin-resistant Staphylococcus aureus clinical isolate MRSA-16 assessed as dead cells (Q1 region) at 64 ug/ml incubated for 2 hrs by SYTO 9 and PI staining based flow cytometry analysis (reference value: 0.00%); format: cell membranes; conditions: dose 64.0 µg/ml
Staphylococcus aureus [27] = test: Antibacterial activity against methicillin-resistant Staphylococcus aureus infected in Kunming mouse skin infection model assessed as decrease in bacterial load at 8 mg/kg,sc measured after 24 hrs; format: functional
Staphylococcus aureus [28] = test: Antibacterial activity against Staphylococcus aureus ATCC 29213 at sub-inhibitory concentration measured after 20 passages for 16 to 18 hrs; format: functional, organism-based; conditions: time 16-18 hrs
Cell membrane [29] = test: Disruption of cell membrane in methicillin-resistant Staphylococcus aureus clinical isolate MRSA-16 assessed as increase in intracellular protein leakage incubated for 4 hrs by microspectrophotometer analysis; format: cell membranes
[30] = Toxicity in Kunming mouse assessed as effect on spleen at 10 mg/kg, sc measured after 24 hrs by H and E staining based analysis; format: organism-based; conditions: in vivo
[31] = Toxicity in Kunming mouse assessed as effect on heart at 4 to 8 mg/kg, sc measured after 24 hrs by H and E staining based analysis; format: organism-based; conditions: in vivo, dose 4-8 mg/kg
Staphylococcus aureus [32] = test: Antibacterial activity against methicillin-resistant Staphylococcus aureus in presence of phosphatidylethanolamine; format: functional, organism-based
Staphylococcus aureus [33] = test: Antibacterial activity against methicillin-resistant Staphylococcus aureus infected in Kunming mouse skin infection model assessed as reduction in inflammatory cells at 4 to 8 mg/kg,sc measured after 24 hrs; format: functional, organism-based; conditions: dose 4-8 mg/kg
Staphylococcus aureus [34] = test: Antibacterial activity against Staphylococcus aureus ATCC 29213 measured after 20 passages for 16 to 18 hrs; format: functional; conditions: time 16-18 hrs
[35] = Toxicity in Kunming mouse assessed as effect on lung at 4 to 8 mg/kg, sc measured after 24 hrs by H and E staining based analysis; format: organism-based; conditions: in vivo, dose 4-8 mg/kg
Staphylococcus aureus [36] = test: Antibacterial activity against methicillin-resistant Staphylococcus aureus infected in Kunming mouse skin infection model assessed as decrease in bacterial load at 4 mg/kg,sc measured after 24 hrs; format: functional
[37] = Toxicity in Kunming mouse assessed as effect on liver at 4 to 8 mg/kg, sc measured after 24 hrs by H and E staining based analysis; format: organism-based; conditions: in vivo, dose 4-8 mg/kg

CCCC[N+](C)(CCCC)CCCCCOc1ccc(C2CC(=O)c3c(OC)cc(OCCCCC[N+](C)(CCCC)CCCC)c(CC=C(C)C)c3O2)cc1.[I-].[I-] (stereo not drawn)
fold change (FC) (Cell membrane [1]): 4 | Activity [2]: Non-Toxic | viability at 32 ug/ml [3]: 72% | Activity [4]: Toxic | Activity (Cell membrane [5]): 99.2% | MIC (Staphylococcus aureus [6]): 0.25 µg/mL | Activity [7]: Non-Toxic | Activity (Staphylococcus aureus [8]): Active | Activity [9]: Non-Toxic | Activity (Cell membrane [10]): 0.79% | Activity (Staphylococcus aureus [11]): Active | survival at 24 h [12]: 40% | fold change (FC) (Cell membrane [13]): 4.5 | Activity [14]: Non-Toxic | Activity (Staphylococcus aureus [15]): 99.99% | Activity (Staphylococcus aureus [16]): Active | MIC (Escherichia coli): 16 µg/mL | MIC (Staphylococcus aureus [17]): 32 µg/mL | MIC (Staphylococcus aureus [18]): 0.25 µg/mL | Activity (Cell membrane [19]): 1.58% | Activity [20]: Non-Toxic | Activity (Staphylococcus aureus [21]): Dose-Dependent Effect | Activity (Staphylococcus aureus [22]): Active | HC50 at 1 h [23]: > 1280 µg/mL | Activity (Cell membrane [24]): Active | Activity [25]: Non-Toxic | Activity (Cell membrane [26]): 100% | Activity (Staphylococcus aureus [27]): 5 log10CFU/g | Activity (Staphylococcus aureus [28]): inactive | Activity (Cell membrane [29]): Active | Activity [30]: Non-Toxic | Activity [31]: Non-Toxic | Activity (Staphylococcus aureus [32]): Active | Activity (Staphylococcus aureus [33]): Active | MIC (Staphylococcus aureus [34]): 1 µg/mL | Activity [35]: Non-Toxic | Activity (Staphylococcus aureus [36]): 3.2 log10CFU/g | Activity [37]: Non-Toxic
